According to paper PMC6732362, “Cancer-associated variants of human NQO1: impacts on inhibitor binding and cooperativity” (Bioscience Reports, 2019):

Assays:
human wild-type NQO1 [1] = molecular target: T1, human wild-type NQO1 (Homo sapiens, UniProt P15559)
human NQO1 p.R139W [2] = molecular target: T2, human NQO1 p.R139W (Homo sapiens, UniProt P15559, R139W); assay: Differential scanning fluorimetry (FAD release on thermal denaturation); format: binding; set-up: hexahistidine; made in house; host or cells: Escherichia coli; settings: for effect on stability towards thermal denaturation (ΔTm): p.R139W, concentration-dependent
T2 sequence (P15559 whole entry R139W): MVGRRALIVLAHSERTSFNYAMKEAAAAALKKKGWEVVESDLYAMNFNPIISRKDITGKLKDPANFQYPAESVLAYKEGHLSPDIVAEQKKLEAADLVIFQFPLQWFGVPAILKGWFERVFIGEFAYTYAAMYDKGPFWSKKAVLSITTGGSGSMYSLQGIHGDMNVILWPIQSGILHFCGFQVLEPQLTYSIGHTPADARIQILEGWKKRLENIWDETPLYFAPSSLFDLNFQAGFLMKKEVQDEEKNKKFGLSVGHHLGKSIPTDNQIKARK

human wild-type NQO1 [3] = molecular target: T1, human wild-type NQO1; assay: biochemical
human NQO1 p.R139W [4] = molecular target: T2, human NQO1 p.R139W
human wild-type NQO1 [5] = molecular target: T1, human wild-type NQO1; assay: Differential scanning fluorimetry (FAD release on thermal denaturation); format: binding; set-up: hexahistidine; made in house; host or cells: Escherichia coli; settings: for effect on stability towards thermal denaturation (ΔTm): wild-type NQO1, concentration-dependent
human NQO1 p.P187S = molecular target: T3, human NQO1 p.P187S (Homo sapiens, UniProt P15559, P187S); assay: as above; format: binding
T3 construct: hexahistidine; made in house; host or cells: Escherichia coli
T3 sequence (P15559 whole entry P187S): as the sequence (P15559 whole entry R139W) above, with W139R, P187S counted along it

human NQO1 p.R139W [6] = molecular target: T2, human NQO1 p.R139W; assay: biochemical
[7] = wild-type, Dixon and [S]/v plots (data not shown)

T1 sequence (P15559 whole entry): as the sequence (P15559 whole entry R139W) above, with W139R counted along it

Oc1ccc(/C=C/c2cc(O)cc(O)c2)cc1 [Resveratrol, resveratrol]
type of inhibition with respect to NADH (human wild-type NQO1 [1]; [7]): mixed | type of inhibition with respect to NADPH (human wild-type NQO1 [1]; [7]): competitive | effect on stability towards thermal denaturation (ΔTm) (human NQO1 p.R139W [2]): destabilised | Ki (human wild-type NQO1 [3]): 0.375 ± 0.129 mM | type of inhibition with respect to NADH (human NQO1 p.R139W [4]; p.R139W (data not shown)): uncompetitive | type of inhibition with respect to NADPH (human NQO1 p.R139W [4]; p.R139W (data not shown)): mixed | effect on stability towards thermal denaturation (ΔTm) (human wild-type NQO1 [5]): destabilised | effect on stability towards thermal denaturation (ΔTm) (human NQO1 p.P187S): destabilised

NC(=O)c1cccnc1 [Nicotinamide, nicotinamide]
type of inhibition (human wild-type NQO1 [1]; NQO1, Dixon and [S]/v plots): mixed | Hill coefficient (h) (human wild-type NQO1 [1]; wild-type NQO1, no additional FAD, 70 μM DCPIP, 300 μM NADH, mean of three Hill plots ± SD): 0.91 ± 0.06 | Kd (human NQO1 p.R139W [2]; p.R139W 2 μM dimer, from ΔTm vs inhibitor concentration, HEPES-OH pH 7.3, read-out: KD,app): 18.2 ± 5.2 mM | effect on stability towards thermal denaturation (ΔTm) (human NQO1 p.R139W [2]): stabilized | Ki (human NQO1 p.R139W [6]): 13.5 ± 3.22 mM | Ki (human wild-type NQO1 [3]): 14 ± 4.34 mM | Hill coefficient (h) (human NQO1 p.R139W [4]; p.R139W, no additional FAD, 70 μM DCPIP, 300 μM NADH, mean of three Hill plots ± SD): 0.92 ± 0.05 | Kd (human wild-type NQO1 [5]; wild-type NQO1 2 μM dimer, from ΔTm vs inhibitor concentration, HEPES-OH pH 7.3, read-out: KD,app): 6 ± 0.9 mM | effect on stability towards thermal denaturation (ΔTm) (human wild-type NQO1 [5]): stabilized | effect on stability towards thermal denaturation (ΔTm) (human NQO1 p.P187S): no detectable effect
